Starred links: 1 amine or outer side, 2 acyl side, 3 side chain; linkers in the order of their positions; H or OH if unused. Positions of bridges follow the written chain, without caps; N, C: chain ends. Non-standard residues stand in square brackets, D forms with d. Residues, ends and D or L forms follow the SMILES beside them. ξ: configuration not given here. *: point of attachment. pTerphenylCO(4''-OnC5H11) = CCCCCOc1ccc(-c2ccc(-c3ccc(C(=O)*)cc3)cc2)cc1; Orn(4R-OH,5R-OH) = O=C([C@H](C[C@@H](O)[C@@H](O)N[*:3])N[*:1])[*:2]; hTyr(3S-OH,4S-OH) = N[C@H](C(=O)O)[C@H](O)[C@@H](O)c1ccc(O)cc1; Pro(3S-OH,4S-Me) = C[C@H]1CN[C@H](C(=O)O)[C@H]1O; ξPro(4R-OH) = O=C(O)C1C[C@@H](O)CN1
Test system: Human Renal Glomerular Endothelial Cells (HRGEC)
Experiment: Oxygen and glucose deprivation followed by replenishment, cell survival (calcein AM), HRGEC
Format: cell-based
Method: Anidulafungin and micafungin were tested on Human Renal Glomerular Endothelial Cells (HRGEC, Innoprot P10665), on Human Renal Proximal Tubular Epithelial Cells (HRPTEpiC, Innoprot P10662), on Human Astrocytes (HA, caltag SC-1800), on Human Cardiac Microvascular Endothelial Cells (HCMEC, Caltag SC-6000), on Human Hepatic Sinusoidal Endothelial Cells (HHSEC, Caltag SC-5000), on Rat Primary Kidney Glomerular Endothelial cells (Cellbiologics, RN-6014G) and on Bovine Brain Microvascular Endothelial Cells (BBMEC, Caltag SC-B100).
In a first phase, these isolated, purified and cryopreserved cells are thawed and multiplied according to the supplier's recommendations in T75 or T175 flasks pre-coated with 2 μg of fibronectin/[…] (CORNING) for HRGEC, HCMEC, HHSEC and BBMEC, or 2 μg poly-L-lysin/cm^2 (Caltag SC-0403) for HRPTEpiC and HA, or 15 mL/flask 175 cm^2 gelatin-based solution (Cellbiologics) in the presence of endothelial cell supplemented growth medium ECM (P60104, INNOPROT, Caltag, SC-1001) for HRGEC, HCMEC, HHSEC, RPKGEC or BBMEC, or astrocyte cell supplemented growth medium AM (Caltag SC-1801) for HA or epithelial cell supplemented growth medium EpiCM (P60106, INNOPROT) for HRPTEpiC, at 37° C. under 5% CO2 and saturated humidity until their confluency. They are then harvested by trypsinization according to the method described by the supplier for exactly 5 minutes and then reseeded in new flasks a maximum of three times.
To carry out the oxygen and glucose deprivation test followed by their replenishment, the cells will be seeded in 96-well black plates with transparent flat bottom (GREINER). Once a sufficient number of cells has been obtained to allow seeding of 2000 to 15000 cells per well of 96-well plates depending on the cell type, the cells are seeded in these 96-well plates previously coated with an extracellular matrix as listed above for the flasks. The cells are cultured for 5 to 8 days according to the cell type, in the presence of the same growth medium as in the flask as described above except for HRGEC and HRPTEpiC for which DMEM (DUTSCHER) with 1 g/L of supplemented glucose is used, at 37° C. under 5% CO2 and saturated humidity to obtain confluency.
On the first day of oxygen and glucose deprivation, (5th, 6th, 7th or 8th day of culture), the culture conditions are drastically changed. The medium of all plates is removed and replaced by DMEM (DUTSCHER) medium without glucose and supplemented only with 1% penicillin-streptomycin (DUTSCHER). Anidulafungin or micafungin dissolved in dimethyl sulfoxide (DMSO) is then added to each well at the desired concentration, resulting in a maximum of 1% DMSO, and the plates are placed under hypoxia at <1% 02 and 5% CO2 at 37° C. for 24 hours of culture. Each compound was tested in a concentration range.
After 24 hours, the growth medium is changed and replaced by a richer medium, DMEM (DUTSCHER) at 1 g/L glucose and 2% FBS (INNOPROT) and 1% penicillin-streptomycin (DUTSCHER). These media will have been pre-equilibrated at 37° C. in advance. The cells are then returned to culture at 37° C. under 20% 02 and 5% CO2 for 22h.
After 22 hours of reoxygenation, the potential protective effect of anidulafungin or micafungin is measured by a cell viability test using calcein AM (CORNING), which is a dye substrate. The calcein AM can easily cross the cell membrane of the viable cells. The AM ester groups mask the part of the molecule that chelates calcium. Once inside the cells, the (non-fluorescent) calcein AM is hydrolyzed to (fluorescent) calcein by endogenous esterases. The resulting calcein molecule binds to calcium inside the cell and remains trapped inside the cell. These molecules emit strong green fluorescence when subjected to […] of a particular wavelength (495 nm). Since dead cells lack esterase activity, only living cells are labelled.
This cell viability test is performed in two steps. […]

[1] = [Anidulafungin] log μM 0.7781513
[2] = [Anidulafungin] log μM 1.079181
[3] = [Anidulafungin] log μM 1.255273

Q: Which “Globalfluo assay 1” value ([Anidulafungin] log μM 0) does the source give for CCCCCOc1ccc(-c2ccc(-c3ccc(C(=O)N[C@H]4C[C@@H](O)[C@@H](O)NC(=O)[C@@H]5[C@@H](O)[C@@H](C)CN5C(=O)[C@H]([C@@H](C)O)NC(=O)[C@H]([C@H](O)[C@@H](O)c5ccc(O)cc5)NC(=O)C5C[C@@H](O)CN5C(=O)[C@H]([C@@H](C)O)NC4=O)cc3)cc2)cc1 (stereo partly drawn) [Anidulafungin] ({pTerphenylCO(4''-OnC5H11)}-[Orn(4R-OH,5R-OH)]T[ξPro(4R-OH)][hTyr(3S-OH,4S-OH)]T[Pro(3S-OH,4S-Me)]; lactam 1-C) here?
A: 1595273 arbitrary units

Q: What about the “Globalfluo assay 2” value ([Anidulafungin] log μM 0) of the same molecule?
A: 2299957 arbitrary units

Q: And the “Globalfluo assay 3” value ([Anidulafungin] log μM 0)?
A: 2320330 arbitrary units

Q: And the Mean globalfluo ([Anidulafungin] log μM 0)?
A: 2071853 arbitrary units

Q: What about the “Survival rate (%)” value ([Anidulafungin] log μM 0) of the same molecule?
A: −6%

Q: What about the “Globalfluo assay 1” value ([Anidulafungin] log μM 0.30103) of the same molecule?
A: 3108717 arbitrary units

Q: What about the “Globalfluo assay 2” value ([Anidulafungin] log μM 0.30103) of the same molecule?
A: 8079028 arbitrary units

Q: What about the “Globalfluo assay 3” value ([Anidulafungin] log μM 0.30103) of the same molecule?
A: 4587276 arbitrary units

Q: And the Mean globalfluo ([Anidulafungin] log μM 0.30103)?
A: 5258340 arbitrary units

Q: And the “Survival rate (%)” value ([Anidulafungin] log μM 0.30103)?
A: 7%

Q: What about the “Globalfluo assay 1” value ([Anidulafungin] log μM 0.60206) of the same molecule?
A: 6404501 arbitrary units

Q: What about the “Globalfluo assay 2” value ([Anidulafungin] log μM 0.60206) of the same molecule?
A: 5391467 arbitrary units

Q: And the “Globalfluo assay 3” value ([Anidulafungin] log μM 0.60206)?
A: 4055726 arbitrary units

Q: And the Mean globalfluo ([Anidulafungin] log μM 0.60206)?
A: 5283898 arbitrary units

Q: What about the “Survival rate (%)” value ([Anidulafungin] log μM 0.60206) of the same molecule?
A: 7%

Q: And the “Globalfluo assay 1” value [1]?
A: 1844220 arbitrary units

Q: And the “Globalfluo assay 2” value [1]?
A: 8446890 arbitrary units

Q: What about the “Globalfluo assay 3” value [1] of the same molecule?
A: 6499110 arbitrary units

Q: And the Mean globalfluo [1]?
A: 5596740 arbitrary units

Q: What about the “Survival rate (%)” value [1] of the same molecule?
A: 8%

Q: And the “Globalfluo assay 1” value ([Anidulafungin] log μM 0.90309)?
A: 7152564 arbitrary units

Q: And the “Globalfluo assay 2” value ([Anidulafungin] log μM 0.90309)?
A: 8021501 arbitrary units

Q: What about the “Globalfluo assay 3” value ([Anidulafungin] log μM 0.90309) of the same molecule?
A: 6792572 arbitrary units

Q: What about the Mean globalfluo ([Anidulafungin] log μM 0.90309) of the same molecule?
A: 7322212 arbitrary units

Q: What about the “Survival rate (%)” value ([Anidulafungin] log μM 0.90309) of the same molecule?
A: 15%

Q: And the “Globalfluo assay 1” value ([Anidulafungin] log μM 1)?
A: 8082278 arbitrary units

Q: And the “Globalfluo assay 2” value ([Anidulafungin] log μM 1)?
A: 8981812 arbitrary units

Q: What about the “Globalfluo assay 3” value ([Anidulafungin] log μM 1) of the same molecule?
A: 10460790 arbitrary units

Q: What about the Mean globalfluo ([Anidulafungin] log μM 1) of the same molecule?
A: 9174960 arbitrary units

Q: What about the “Survival rate (%)” value ([Anidulafungin] log μM 1) of the same molecule?
A: 23%

Q: What about the “Globalfluo assay 1” value [2] of the same molecule?
A: 12175690 arbitrary units

Q: And the “Globalfluo assay 2” value [2]?
A: 10104310 arbitrary units

Q: What about the “Globalfluo assay 3” value [2] of the same molecule?
A: 9396440 arbitrary units

Q: What about the Mean globalfluo [2] of the same molecule?
A: 10558813 arbitrary units

Q: What about the “Survival rate (%)” value [2] of the same molecule?
A: 28%

Q: And the “Globalfluo assay 1” value ([Anidulafungin] log μM 1.20412)?
A: 12170420 arbitrary units

Q: And the “Globalfluo assay 2” value ([Anidulafungin] log μM 1.20412)?
A: 9545764 arbitrary units

Q: What about the “Globalfluo assay 3” value ([Anidulafungin] log μM 1.20412) of the same molecule?
A: 9735499 arbitrary units

Q: What about the Mean globalfluo ([Anidulafungin] log μM 1.20412) of the same molecule?
A: 10483894 arbitrary units

Q: What about the “Survival rate (%)” value ([Anidulafungin] log μM 1.20412) of the same molecule?
A: 28%

Q: What about the “Globalfluo assay 1” value [3] of the same molecule?
A: 10855790 arbitrary units

Q: And the “Globalfluo assay 2” value [3]?
A: 12347330 arbitrary units

Q: What about the “Globalfluo assay 3” value [3] of the same molecule?
A: 7837444 arbitrary units

Q: What about the Mean globalfluo [3] of the same molecule?
A: 10346855 arbitrary units

Q: And the “Survival rate (%)” value [3]?
A: 27%

Q: What about the “Globalfluo assay 1” value ([Anidulafungin] log μM 1.30103) of the same molecule?
A: 10143140 arbitrary units

Q: What about the “Globalfluo assay 2” value ([Anidulafungin] log μM 1.30103) of the same molecule?
A: 10354290 arbitrary units

Q: What about the “Globalfluo assay 3” value ([Anidulafungin] log μM 1.30103) of the same molecule?
A: 10227990 arbitrary units

Q: And the Mean globalfluo ([Anidulafungin] log μM 1.30103)?
A: 10241807 arbitrary units

Q: And the “Survival rate (%)” value ([Anidulafungin] log μM 1.30103)?
A: 27%

From US11458189B2, “Cytoprotective drugs” (BALMES TRANSPLANTATION, priority 2017, dated 2022)
